Results as given in ChEMBL document CHEMBL4052619, “First example of peptides targeting the dimer interface of Leishmania infantum trypanothione reductase with potent in vitro antileishmanial activity” (Eur J Med Chem, 2017).
Active and inactive are the calls of the source. The calls are words filed in the database; no cut-off is given here. Square brackets hold non-standard residues; d marks the D form. Peptide text beside a SMILES is read from it. ξ: configuration not given here. ξNle = CCCCC(N)C(=O)O

Experiments:
Leishmania infantum [1] = assay: Antileishmanial activity against Leishmania infantum MCAN/ES/89/IPZ229/1/89 promastigotes assessed as induction of cell death at 25 uM after 24 hrs by propidium iodide staining based flow cytometry; format: functional
Trypanothione reductase = Trypanothione reductase (Leishmania infantum, UniProt A4HSF7); assay: Inhibition of recombinant Leishmania infantum TryR preincubated for 10 mins followed by T[S]2 substrate addition and measured after 1 hr in presence of NADPH
Leishmania infantum [2] = assay: Antileishmanial activity against Leishmania infantum axenic amastigotes assessed as induction of cell death at 25 uM after 24 hrs by propidium iodide staining based flow cytometry; format: functional
Leishmania infantum [3] = assay: Antileishmanial activity against Leishmania infantum MCAN/ES/89/IPZ229/1/89 promastigotes assessed as induction of cell death after 24 hrs by propidium iodide staining based flow cytometry; format: functional; details: MCAN/ES/89/IPZ229/1/89, 24 h
Leishmania infantum [4] = assay: Antileishmanial activity against Leishmania infantum axenic amastigotes assessed as induction of cell death after 24 hrs by propidium iodide staining based flow cytometry; format: functional
[5] = Cytotoxicity against human THP1 cells assessed as induction of cell death after 24 hrs by propidium iodide staining based flow cytometry; details: THP-1 cells, read-out: LC50

Chain of Trypanothione reductase (A4HSF7 whole entry): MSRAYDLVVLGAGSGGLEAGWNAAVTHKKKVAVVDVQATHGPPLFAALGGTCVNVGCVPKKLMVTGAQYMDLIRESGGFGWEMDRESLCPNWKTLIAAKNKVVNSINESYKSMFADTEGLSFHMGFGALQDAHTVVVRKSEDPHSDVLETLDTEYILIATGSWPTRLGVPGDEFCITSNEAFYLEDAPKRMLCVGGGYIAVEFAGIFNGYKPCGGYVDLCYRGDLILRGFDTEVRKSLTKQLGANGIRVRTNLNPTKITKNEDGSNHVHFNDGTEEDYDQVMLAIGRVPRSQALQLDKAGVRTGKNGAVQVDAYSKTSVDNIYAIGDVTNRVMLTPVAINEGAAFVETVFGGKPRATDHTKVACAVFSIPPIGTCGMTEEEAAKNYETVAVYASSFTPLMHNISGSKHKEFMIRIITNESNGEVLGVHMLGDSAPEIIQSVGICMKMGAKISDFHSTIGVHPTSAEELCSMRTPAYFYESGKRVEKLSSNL

## Ac-PKIEQSVKI-NH2
Leishmania infantum [1]
  Activity: inactive
Trypanothione reductase
  IC50: 47.4 µM
Leishmania infantum [2]
  Activity: inactive

## Ac-RRRRRRRRRKMGISSMVQPKII-NH2
Leishmania infantum [3]
  LC50: > 25 µM
Leishmania infantum [4]
  LC50: > 25 µM
[5]
  CC50 at 24 h: > 25 µM

## CCCCC(NC(=O)[C@H](CCCCN)NC(=O)C(CCCC)NC(=O)[C@H](CO)NC(=O)[C@@H](NC(=O)[C@H](CCC(=O)O)NC(=O)[C@@H](NC(=O)[C@H](CO)NC(=O)[C@H](CCC(N)=O)NC(=O)[C@@H](NC(=O)[C@@H](NC(=O)[C@H](CCCCN)NC(=O)[C@@H]1CCCN1C(C)=O)[C@@H](C)CC)[C@@H](C)CC)C(C)C)[C@@H](C)CC)C(N)=O (stereo not given in full)
Leishmania infantum [1]
  Activity: inactive
Trypanothione reductase
  IC50: > 75 µM
Leishmania infantum [2]
  Activity: inactive

## CC(=O)NCC(=O)N[C@@H](CCCNC(=N)N)C(=O)N[C@@H](CCCCN)C(=O)N[C@@H](CCCCN)C(=O)N[C@@H](CCCNC(=N)N)C(=O)N[C@@H](CCCNC(=N)N)C(=O)N[C@@H](CCC(N)=O)C(=O)N[C@@H](CCCNC(=N)N)C(=O)N[C@@H](CCCNC(=N)N)C(=O)N[C@@H](CCCNC(=N)N)C(=O)N1CCC[C@H]1C(=O)N1CCC[C@H]1C(=O)N[C@@H](CCC(N)=O)C(N)=O
Leishmania infantum [3]
  LC50: > 25 µM
Leishmania infantum [4]
  LC50: > 25 µM
[5]
  CC50 at 24 h: > 25 µM

## Ac-PKEIQSKGI-NH2
Leishmania infantum [1]
  Activity: inactive
Trypanothione reductase
  IC50: > 75 µM
Leishmania infantum [2]
  Activity: inactive

## CCCCCCCCCCCCCCCCOP(=O)([O-])OCC[N+](C)(C)C [MILTEFOSINE]
Leishmania infantum [3]
  LC50: 47.6 µM
Leishmania infantum [4]
  LC50: 2 µM
[5]
  CC50 at 24 h: 19 µM

## CCCCC(NC(=O)[C@H](CCCCN)NC(=O)C(CCCC)NC(=O)[C@H](CO)NC(=O)[C@@H](NC(=O)CNC(=O)[C@@H](NC(=O)[C@H](CO)NC(=O)[C@H](CCC(N)=O)NC(=O)[C@@H](NC(=O)[C@@H](NC(=O)[C@H](CCCCN)NC(=O)[C@@H]1CCCN1C(=O)[C@H](CCC(N)=O)NC(=O)[C@@H]1CCCN1C(=O)[C@@H]1CCCN1C(=O)[C@H](CCCNC(=N)N)NC(=O)[C@H](CCCNC(=N)N)NC(=O)[C@H](CCCNC(=N)N)NC(=O)[C@H](CCC(N)=O)NC(=O)[C@H](CCCNC(=N)N)NC(=O)[C@H](CCCNC(=N)N)NC(=O)[C@H](CCCCN)NC(=O)[C@H](CCCCN)NC(=O)[C@H](CCCNC(=N)N)NC(=O)CNC(C)=O)[C@@H](C)CC)[C@@H](C)CC)C(C)C)[C@@H](C)CC)C(N)=O (stereo not given in full) (Ac-GRKKRRQRRRPPQPKIIQSVGIS[ξNle]K[ξNle]-NH2)
Leishmania infantum [3]
  LC50: 4.3 µM
Leishmania infantum [4]
  LC50: 1.5 µM
[5]
  CC50 at 24 h: 1.2 µM

## CCCCC(NC(=O)[C@H](CCCCN)NC(=O)[C@H](CCCCN)NC(=O)[C@H](CO)NC(=O)[C@@H](NC(=O)CNC(=O)[C@H](CCC(=O)O)NC(=O)[C@H](CO)NC(=O)[C@H](CCC(N)=O)NC(=O)[C@@H](NC(=O)[C@@H](NC(=O)[C@H](CCCCN)NC(=O)[C@@H]1CCCN1C(C)=O)[C@@H](C)CC)[C@@H](C)CC)[C@@H](C)CC)C(N)=O (stereo not given in full) (Ac-PKIIQSEGISKK[ξNle]-NH2)
Leishmania infantum [1]
  Activity: inactive
Trypanothione reductase
  IC50: > 75 µM
Leishmania infantum [2]
  Activity: inactive

## CCCCC(NC(=O)[C@H](CCCCN)NC(=O)C(CCCC)NC(=O)[C@H](CO)NC(=O)[C@@H](NC(=O)CNC(=O)[C@H](CCCCN)NC(=O)[C@H](CO)NC(=O)[C@H](CCC(N)=O)NC(=O)[C@@H](NC(=O)[C@H](CCC(=O)O)NC(=O)[C@H](CCCCN)NC(=O)[C@@H]1CCCN1C(C)=O)[C@@H](C)CC)[C@@H](C)CC)C(N)=O (stereo not given in full) (Ac-PKEIQSKGIS[ξNle]K[ξNle]-NH2)
Leishmania infantum [1]
  Activity: inactive
Trypanothione reductase
  IC50: > 75 µM
Leishmania infantum [2]
  Activity: inactive

## CCCCC(NC(=O)[C@H](CCCCN)NC(=O)C(CCCC)NC(=O)[C@H](CO)NC(=O)[C@@H](NC(=O)[C@H](CCCCN)NC(=O)[C@@H](NC(=O)[C@H](CO)NC(=O)[C@H](CCC(N)=O)NC(=O)[C@H](CCC(=O)O)NC(=O)[C@@H](NC(=O)[C@H](CCCCN)NC(=O)[C@@H]1CCCN1C(C)=O)[C@@H](C)CC)C(C)C)[C@@H](C)CC)C(N)=O (stereo not given in full) (Ac-PKIEQSVKIS[ξNle]K[ξNle]-NH2)
Leishmania infantum [1]
  Activity: inactive
Trypanothione reductase
  IC50: > 75 µM
Leishmania infantum [2]
  Activity: inactive
